Here are results for three compounds from patent US10512607B2, “Polymeric particles, method for cytosolic delivery of cargo, methods of making the particles” (University of Florida Research Foundation, Inc., priority 2015, dated 2019).

The test system of data set [1] is Chinese hamster ovary (CHO-K1) cells. The experiment in a line: CytoTox96 LDH cytotoxicity assay. The format is cell-based. The settings on record: positive control for toxicity. The method, then: Chinese hamster ovary (CHO-K1) cells were grown in Ham's F12 medium (Mediatech) containing 10% fetal bovine serum (FBS, Hyclone), penicillin (100 units/mL), and streptomycin (100 μg/mL) at 37° C. in a humidified incubator with 5% CO2 [30]. Cell viability was determined via Trypan blue exclusion and was 97% with each passage.
Toxicity of MPs was determined employing CytoTox96 Non-radioactive Cytotoxity Assay (Promega). CHO cells were plated at a density of 10,000 cells per well in a 96 well tissue culture plate in 200 μL of cell culture medium. Cells were maintained at 37° C. in a humidified incubator in a 5% CO2 atmosphere. MPs were added at a ratio of 5, 10, 20, 30, 40, and 50 particles/cell and incubated at 37° C. for 24 h. The culture medium was transferred into wells of a clear bottom 96 well plate. Cells treated with 0.1% Triton X-100 were used as a positive control for 100% toxicity and cell culture medium alone was used for background subtraction for baseline lactate dehydrogenase (LDH) activity (background control). The cell supernatants were incubated with the developing reagents for 30 min per the manufacturer's instructions. The optical density of the developed color was determined by measuring absorbance at 490 nm. […]

Another data set relates to dendritic cells (DCs). As to the kind of experiment: Calcein release from endosomal vesicles in dendritic cells. Type of data set: cell-based, mouse. The settings on record: 2 h at 37° C. The method, then:
DCs were isolated from mouse bone marrow tissues as previously described in Lewis et al. according to the guidelines set forth by the University of Florida Institutional Animal Care and Use Committee.
DCs were plated in 35 mm glass bottom culture dishes at a density of 5×10^4 cells in DC culture medium [DMEM:F12 1:1 (GE Healthcare Life Sciences), 10% fetal bovine serum, 1 mM sodium pyruvate, nonessential amino acids, penicillin-streptomycin, and 20 ng/mL GM-CSF (R&D systems)]. […] As a positive control, a portion of DCs were treated with the membrane permeable Acetoxymethyl ester of calcein (5 μM). Following treatment, cells were washed four times with phosphate buffered saline. New culture medium was added and the cells were imaged with a fluorescent microscope (Axiovert 200M microscope (Carl Zeiss, Oberkochen, Germany) using excitation/emission wavelengths of 495/515 nm at 200-fold magnification.
Images were analyzed by measuring the area of fluorescence per channel (green vs bright field). The values are reported as % relative fluorescence intensity per cell (RFI/cell).

In the case of Triton X-100, the “LDH release relative to basal background LDH activity in media without cells” value in data set [1] worked out at 21 fold.
`O=C(O)CN(CC(=O)O)Cc1cc2c(cc1O)Oc1cc(O)c(CN(CC(=O)O)CC(=O)O)cc1C21OC(=O)c2ccccc21` [calcein alone]: in the data set with dendritic cells (DCs), the “cytosolic distribution of calcein (fluorescent area over cell area)” value is given as “less than 10%”.
Same read-out and setting: the result for “Acetoxymethyl ester of calcein [calcein AM]” reads roughly 95%.
